Laboratory results as given in patent EP0326331B1, “Substituted quinolines and cinnolines” (Dow AgroSciences LLC, priority 1988, dated 1989).

Assays:
Assay type in all cases: in vivo
[1] = test system: Pyricularia oryzae (rice blast); test: whole plant or invertebrate; conditions: disease control rating, foliar spray on rice, 400 ppm (+++ at 100 ppm)
[2] = test system: Cercospora beticola (leaf spot); test: Test 1 greenhouse foliar spray screen, leaf spot on sugar beet; conditions: disease control rating, foliar spray on sugar beet, 400 ppm (+++ at 100 ppm)
[3] = test system: Septoria tritici (leaf blotch); test: Test 1 greenhouse foliar spray screen, leaf blotch on wheat; conditions: disease control rating, foliar spray on wheat, 400 ppm (+++ at 100 ppm)
[4] = test system: southern armyworm (Spodopetra eridania Cramer); test: Mite/insect screen, SAW; conditions: Spodoptera eridania, percent mortality, SAW, read-out: SAW RESULTS %; for mortality at 200 ppm: SM & MA RATE 200 PPM; for mortality at 400 ppm: SM & MA RATE 400 PPM
How it was run: (§1)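 Foliar spray to runoff (10 psi), 1 h drying; aqueous dilutions from acetone/alcohol emulsifier stock. Mortality (%) after standard exposure.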

corn rootworm = test: Mite/insect screen, CRW; conditions: percent mortality, read-out: CRW RESULTS %; for mortality at 12 ppm: CRW RATE 12.00 PPM; for mortality at 24 ppm: CRW RATE 24.00 PPM
How it was run: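 Following dissolution in equal parts acetone and alcohol with 23 g/L and 13 g/L emulsifier blends and dilution with water, test solutions were scored for percent mortality at the end of standard exposures.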

[5] = test system: Pseudoperonospora cubensis (downy mildew); test: Test 1 greenhouse foliar spray screen, downy mildew on squash; conditions: for DOWN MDEW: disease control rating, foliar spray on squash, 400 ppm (+++ at 100 ppm)
[6] = test system: Botrytis cinerea (gray mold); test: Test 1 greenhouse foliar spray screen, gray mold on grape berries; conditions: disease control rating, spray on grape berries, 400 ppm (+++ at 100 ppm)
[7] = test system: melon aphids (Aphis gossypii Glover); test: Mite/insect screen, MA; conditions: Aphis gossypii, percent mortality, SAW, read-out: MA RESULTS %; for mortality at 200 ppm: SM & MA RATE 200 PPM; for mortality at 400 ppm: SM & MA RATE 400 PPM
How it was run: as §1

[8] = test system: Erysiphe graminis tritici (powdery mildew); test: Test 1 greenhouse foliar spray screen, powdery mildew on wheat; conditions: disease control rating, foliar spray on wheat, 400 ppm (+++ at 100 ppm)
[9] = test system: Puccinia recondita tritici (leaf rust); test: Test 1 greenhouse foliar spray screen, leaf rust on wheat; conditions: disease control rating, foliar spray on wheat, 400 ppm (+++ at 100 ppm)
[10] = test system: Venturia inaequalis (apple scab); test: Test 1 greenhouse foliar spray screen, apple scab on apple seedling; conditions: disease control rating, foliar spray on apple seedling, 400 ppm (+++ at 100 ppm)
[11] = test system: Twospotted spider mites (Tetranychus urticae Koch); test: Mite/insect screen, SM; conditions: for mortality at 200 ppm / mortality at 400 ppm: Tetranychus urticae, percent mortality, SAW, read-out: SM RESULTS %; for mortality at 200 ppm: SM & MA RATE 200 PPM; for mortality at 400 ppm: SM & MA RATE 400 PPM
How it was run: as §1

[12] = summary statement in the description

Row | SMILES | RICE BLAST [1] | LEAF SPOT [2] | LEAF BLOT [3] | mortality at 200 ppm [4] | mortality at 12 ppm (corn rootworm) | DOWN MDEW [5] | GRAY MOLD [6] | mortality at 200 ppm [7] | POWD MDEW [8] | LEAF RUST [9] | APPL SCAB [10] | mortality at 200 ppm [11] | mortality at 400 ppm [4] | mortality at 24 ppm (corn rootworm) | mortality at 400 ppm [7] | mortality at 400 ppm [11] | activity as miticides [11, 12] | activity against downy mildew [5, 12]
1 | Fc1ccc2c(NCCc3ccccc3)ccnc2c1 [Example 8, 7-fluoro-N-(2-phenylethyl)-4-quinolinamine] | ++ (90-100% control at 400 ppm) | +++ (90-100% control at 100 ppm) | + (20-89% control at 400 ppm) | 100% | 0% | +++ (90-100% control at 100 ppm) | - (0-19% control at 400 ppm) | 0% | + (20-89% control at 400 ppm) | + (20-89% control at 400 ppm) | - (0-19% control at 400 ppm) | 0% | – | – | – | – | – | –
2 | Fc1ccc2nccc(NCCc3ccccc3)c2c1 [Example 9, 6-fluoro-N-(2-phenylethyl)-4-quinolinamine] | + (20-89% control at 400 ppm) | - (0-19% control at 400 ppm) | - (0-19% control at 400 ppm) | 0% | 0% | +++ (90-100% control at 100 ppm) | - (0-19% control at 400 ppm) | 0% | + (20-89% control at 400 ppm) | + (20-89% control at 400 ppm) | - (0-19% control at 400 ppm) | 0% | – | – | – | – | – | –
3 | Fc1cccc2c(NCCc3ccc(I)cc3)ccnc12 [Example 11, 8-fluoro-N-[2-(4-iodophenyl)ethyl]-4-quinolinamine] | ++ (90-100% control at 400 ppm) | +++ (90-100% control at 100 ppm) | - (0-19% control at 400 ppm) | 80% | 0% | ++ (90-100% control at 400 ppm) | - (0-19% control at 400 ppm) | 0% | - (0-19% control at 400 ppm) | +++ (90-100% control at 100 ppm) | - (0-19% control at 400 ppm) | 0% | 100% | 60% | 0% | 0% | particularly excellent activity | –
4 | Fc1cc(F)c2nccc(NCCc3ccc(Br)cc3)c2c1 [Example 12, N-[2-(4-bromophenyl)ethyl]-6,8-difluoro-4-quinolinamine] | ++ (90-100% control at 400 ppm) | +++ (90-100% control at 100 ppm) | ++ (90-100% control at 400 ppm) | 0% | 0% | ++ (90-100% control at 400 ppm) | - (0-19% control at 400 ppm) | 0% | + (20-89% control at 400 ppm) | +++ (90-100% control at 100 ppm) | - (0-19% control at 400 ppm) | 0% | 100% | 40% | 0% | 0% | – | –
5 | FC(F)(F)c1cccc2c(NCCc3ccc(Br)cc3)ccnc12 [Example 13, N-[2-(4-bromophenyl)ethyl]-8-(trifluoromethyl)-4-quinolinamine] | ++ (90-100% control at 400 ppm) | - (0-19% control at 400 ppm) | - (0-19% control at 400 ppm) | 0% | 0% | ++ (90-100% control at 400 ppm) | - (0-19% control at 400 ppm) | 0% | - (0-19% control at 400 ppm) | ++ (90-100% control at 400 ppm) | - (0-19% control at 400 ppm) | 0% | 0% | 0% | 0% | 0% | – | –
6 | Cc1ccc2nccc(NCCc3ccc(Cl)cc3)c2c1 [Example 14, N-[2-(4-chlorophenyl)ethyl]-6-methyl-4-quinolinamine] | + (20-89% control at 400 ppm) | +++ (90-100% control at 100 ppm) | - (0-19% control at 400 ppm) | 0% | 0% | +++ (90-100% control at 100 ppm) | - (0-19% control at 400 ppm) | 0% | - (0-19% control at 400 ppm) | + (20-89% control at 400 ppm) | - (0-19% control at 400 ppm) | 0% | 0% | 0% | 0% | 0% | – | particularly excellent activity
7 | Cc1cc(C)c2nccc(NCCc3ccc(Cl)cc3)c2c1 [Example 15, N-[2-(4-chlorophenyl)ethyl]-6,8-dimethyl-4-quinolinamine] | + (20-89% control at 400 ppm) | +++ (90-100% control at 100 ppm) | - (0-19% control at 400 ppm) | 0% | 0% | +++ (90-100% control at 100 ppm) | - (0-19% control at 400 ppm) | 0% | - (0-19% control at 400 ppm) | + (20-89% control at 400 ppm) | + (20-89% control at 400 ppm) | 0% | 0% | 0% | 0% | 0% | – | –
